Measurements: patent US20220033397A1, “PHARMACEUTICAL COMPOUNDS AND THEIR USE AS INHIBITORS OF UBIQUITIN SPECIFIC PROTEASE 19 (USP19)” (ALMAC DISCOVERY LIMITED, priority 2018, published 2022)

Molecular target: T1, Full-length USP19 (Homo sapiens, UniProt O94966)
T1 construct: Full-length USP19 was purchased from Boston Biochem (E-576); purchased Boston Biochem E-576
T1 sequence (O94966 1-1318): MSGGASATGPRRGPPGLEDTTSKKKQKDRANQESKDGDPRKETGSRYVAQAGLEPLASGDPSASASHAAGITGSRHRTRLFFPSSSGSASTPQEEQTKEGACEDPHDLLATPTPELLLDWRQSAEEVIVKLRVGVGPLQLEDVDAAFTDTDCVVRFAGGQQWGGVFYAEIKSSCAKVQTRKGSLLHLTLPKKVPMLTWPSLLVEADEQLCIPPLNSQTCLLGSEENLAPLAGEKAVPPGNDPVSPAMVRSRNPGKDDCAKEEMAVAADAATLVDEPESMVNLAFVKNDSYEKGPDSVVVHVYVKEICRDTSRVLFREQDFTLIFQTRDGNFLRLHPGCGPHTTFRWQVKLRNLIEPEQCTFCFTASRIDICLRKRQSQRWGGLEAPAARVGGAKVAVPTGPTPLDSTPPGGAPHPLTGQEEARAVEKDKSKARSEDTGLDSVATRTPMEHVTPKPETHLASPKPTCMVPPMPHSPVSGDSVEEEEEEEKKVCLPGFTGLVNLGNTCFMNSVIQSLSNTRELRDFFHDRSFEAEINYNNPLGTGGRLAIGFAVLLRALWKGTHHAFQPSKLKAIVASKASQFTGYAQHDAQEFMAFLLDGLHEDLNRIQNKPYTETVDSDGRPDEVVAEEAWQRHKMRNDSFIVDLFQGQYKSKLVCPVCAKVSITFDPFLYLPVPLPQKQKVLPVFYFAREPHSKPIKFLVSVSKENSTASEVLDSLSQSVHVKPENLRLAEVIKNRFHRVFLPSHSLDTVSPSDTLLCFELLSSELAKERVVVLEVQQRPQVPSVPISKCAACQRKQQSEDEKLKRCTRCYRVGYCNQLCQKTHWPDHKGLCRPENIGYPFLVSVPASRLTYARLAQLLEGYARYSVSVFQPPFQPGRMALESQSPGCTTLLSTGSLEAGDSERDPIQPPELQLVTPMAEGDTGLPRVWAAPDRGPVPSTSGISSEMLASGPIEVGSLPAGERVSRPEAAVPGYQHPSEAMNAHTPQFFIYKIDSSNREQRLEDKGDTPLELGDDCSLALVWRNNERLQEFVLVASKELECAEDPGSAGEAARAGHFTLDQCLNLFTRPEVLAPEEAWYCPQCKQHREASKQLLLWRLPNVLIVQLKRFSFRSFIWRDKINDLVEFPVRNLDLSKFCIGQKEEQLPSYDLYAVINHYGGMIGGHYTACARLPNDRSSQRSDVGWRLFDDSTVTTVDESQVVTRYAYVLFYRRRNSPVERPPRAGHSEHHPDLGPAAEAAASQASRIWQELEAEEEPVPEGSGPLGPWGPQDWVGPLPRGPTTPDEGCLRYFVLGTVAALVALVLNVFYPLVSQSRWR
Assay: USP19 fluorescence polarisation (FP) homogeneous assay with Ubiquitin-Lys-TAMRA substrate
Format: biochemical
Details: 2.5 nM USP19, 30 min pre-incubation, average of at least two duplicate experiments
Procedure, shortened: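 Full-length USP19 preincubated 30 min at RT with inhibitor (200 μM to 2 μM series, 8–18 points) before adding 500 nM Ubiquitin-Lys-TAMRA substrate.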

Compared with `CC1CN(CC2(O)CCN(C(=O)[C@H](C)CC(F)(F)F)CC23CCCC3)C(=O)CO1` (stereo partly drawn) [Example 97, 4-((10-Hydroxy-7-((R)-4,4,4-trifluoro-2-methylbutanoyl)-7-azaspiro[4.5]decan-10-yl)methyl)-6-methylmorpholin-3-one], `CC1CC(=O)N(CC2(O)CCN(C(=O)[C@H](C)CC(F)(F)F)CC23CCCC3)CC(C)C1` (stereo partly drawn) [Example 99, 1-((10-Hydroxy-7-((R)-4,4,4-trifluoro-2-methylbutanoyl)-7-azaspiro[4.5]decan-10-yl)methyl)-4,6-dimethylazepan-2-one] is lower in IC50: 50 to 250 µM for the first, 5 to 50 µM for the second. The second is the more potent here.

`COCC1CCN(CC2(O)CCN(C(=O)[C@H](C)CC(F)(F)F)CC23CCCC3)C(=O)C1` (stereo partly drawn) [Example 98, 1-((10-Hydroxy-7-((R)-4,4,4-trifluoro-2-methylbutanoyl)-7-azaspiro[4.5]decan-10-yl)methyl)-4-(methoxymethyl)piperidin-2-one] and `CCC1CCN(CC2(O)CCN(C(=O)[C@H](C)CC(F)(F)F)CC23CCCC3)C(=O)C1` (stereo partly drawn) [Example 100, 4-Ethyl-1-((10-hydroxy-7-((R)-4,4,4-trifluoro-2-methylbutanoyl)-7-azaspiro[4.5]decan-10-yl)methyl)piperidin-2-one] fall in the same range of IC50: 5 to 50 µM for the first, 5 to 50 µM for the second.

First: C[C@H](CC(F)(F)F)C(=O)N1CCC(O)(CN2C(=O)CC2c2ccccc2)C2(CCCC2)C1 (stereo partly drawn) [Example 101, 1-((10-Hydroxy-7-((R)-4,4,4-trifluoro-2-methylbutanoyl)-7-azaspiro[4.5]decan-10-yl)methyl)-4-phenylazetidin-2-one]
Second: C[C@H](CC(F)(F)F)C(=O)N1CCC(O)(CN2CCN(c3ccccc3)CC2=O)C2(CCCC2)C1 (stereo partly drawn) [Example 110, 1-((10-Hydroxy-7-((R)-4,4,4-trifluoro-2-methylbutanoyl)-7-azaspiro[4.5]decan-10-yl)methyl)-4-phenylpiperazin-2-one]
The IC50 of the first is higher: 50 to 250 µM for the first, less than 0.5 µM for the second. The second is the more potent here.

First: C[C@H](CC1CCCCC1)C(=O)N1CCC(O)(CN2Cc3cccnc3C2=O)C2(CCCC2)C1 (stereo partly drawn) [Example 102, 6-((7-((R)-3-Cyclohexyl-2-methylpropanoyl)-10-hydroxy-7-azaspiro[4.5]decan-10-yl)methyl)-5,6-dihydro-7H-pyrrolo[3,4-b]pyridin-7-one]
Second: C[C@H](CC1CCCCC1)C(=O)N1CCC(O)(CN2Cc3ncccc3C2=O)C2(CCCC2)C1 (stereo partly drawn) [Example 103, 6-((7-((R)-3-Cyclohexyl-2-methylpropanoyl)-10-hydroxy-7-azaspiro[4.5]decan-10-yl)methyl)-6,7-dihydro-5H-pyrrolo[3,4-b]pyridin-5-one]
The IC50 of the first is higher: 5 to 50 µM for the first, 0.5 to 5 µM for the second. The second is the more potent here.

`C[C@H](CC(F)(F)F)C(=O)N1CCC(O)(CN2Cc3ncccc3C2=O)C2(CCCC2)C1` (stereo partly drawn) [Example 104, 6-((10-Hydroxy-7-((R)-4,4,4-trifluoro-2-methylbutanoyl)-7-azaspiro[4.5]decan-10-yl)methyl)-6,7-dihydro-5H-pyrrolo[3,4-b]pyridin-5-one] and `C[C@H](CC(F)(F)F)C(=O)N1CCC(O)(CN2Cc3cnccc3C2=O)C2(CCCC2)C1` (stereo partly drawn) [Example 106, 2-((10-Hydroxy-7-((R)-4,4,4-trifluoro-2-methylbutanoyl)-7-azaspiro[4.5]decan-10-yl)methyl)-2,3-dihydro-1H-pyrrolo[3,4-c]pyridin-1-one] fall in the same range of IC50: 50 to 250 µM for the first, 50 to 250 µM for the second.

First: O=C1CN(C(=O)c2ccccc2)CCN1CC1(O)CCN(C(=O)NCc2ccccc2)CC12CCCC2 (centres unmarked) [Example 107, 10-((4-Benzoyl-2-oxopiperazin-1-yl)methyl)-N-benzyl-10-hydroxy-7-azaspiro[4.5]decane-7-carboxamide]
Second: O=C1CN(c2ccccc2)CCN1CC1(O)CCN(C(=O)NCc2ccccc2)CC12CCCC2 (centres unmarked) [Example 109, N-Benzyl-10-hydroxy-10-((2-oxo-4-phenylpiperazin-1-yl)methyl)-7-azaspiro[4.5]decane-7-carboxamide]
The IC50 of the first is higher: 5 to 50 µM for the first, less than 0.5 µM for the second.

`C[C@H](CC(F)(F)F)C(=O)N1CCC(O)(CN2CCN(C(=O)c3ccccc3)CC2=O)C2(CCCC2)C1` (stereo partly drawn) [Example 108, 4-Benzoyl-1-((10-hydroxy-7-((R)-4,4,4-trifluoro-2-methylbutanoyl)-7-azaspiro[4.5]decan-10-yl)methyl)Piperazin-2-one] and `CC(=O)N1CCN(CC2(O)CCN(C(=O)[C@H](C)CC(F)(F)F)CC23CCCC3)C(=O)C1` (stereo partly drawn) [Example 112, 4-Acetyl-1-((10-hydroxy-7-((R)-4,4,4-trifluoro-2-methylbutanoyl)-7-azaspiro[4.5]decan-10-yl)methyl)piperazin-2-one] fall in the same range of IC50: 5 to 50 µM for the first, 5 to 50 µM for the second.

Compared with `CC(=O)N1CCN(CC2(O)CCN(C(=O)NCc3ccccc3)CC23CCCC3)C(=O)C1` (centres unmarked) [Example 111, 10-((4-Acetyl-2-oxopiperazin-1-yl)methyl)-N-benzyl-10-hydroxy-7-azaspiro[4.5]decane-7-carboxamide], `CC1(C)CCC(N2CCN(CC3(O)CCN(C(=O)NCc4ccccc4)CC34CCCC4)C(=O)C2)CC1` (centres unmarked) [Example 115, N-Benzyl-10-((4-(4,4-dimethylcyclohexyl)-2-oxopiperazin-1-yl)methyl)-10-hydroxy-7-azaspiro[4.5]decane-7-carboxamide] is lower in IC50: 5 to 50 µM for the first, 0.5 to 5 µM for the second. The second is the more potent here.

Compared with `C[C@H](CC(F)(F)F)C(=O)N1CCC(O)(CN2CCN(c3ccccn3)CC2=O)C2(CCCC2)C1` (stereo partly drawn) [Example 113, 1-((10-Hydroxy-7-((R)-4,4,4-trifluoro-2-methylbutanoyl)-7-azaspiro[4.5]decan-10-yl)methyl)-4-(pyridin-2-yl)piperazin-2-one], `C[C@H](CC(F)(F)F)C(=O)N1CCC(O)(CN2CCN(C3CCC(C)(C)CC3)CC2=O)C2(CCCC2)C1` (stereo partly drawn) [Example 116, 4-(4,4-Dimethylcyclohexyl)-1-((10-hydroxy-7-((R)-4,4,4-trifluoro-2-methylbutanoyl)-7-azaspiro[4.5]decan-10-yl)methyl)Piperazin-2-one] is higher in IC50: less than 0.5 µM for the first, 5 to 50 µM for the second. The first is the more potent here.

`C[C@H](CC1CCCCC1)C(=O)N1CCC(O)(CN2CCN(C)CC2=O)C2(CCCC2)C1` (stereo partly drawn) [Example 114, 1-((7-((R)-3-Cyclohexyl-2-methylpropanoyl)-10-hydroxy-7-azaspiro[4.5]decan-10-yl)methyl)-4-methylpiperazin-2-one] and `Cc1nc2ccccc2c(=O)n1CC1(O)CCN(C(=O)[C@H](C)CC2CCCCC2)CC12CCCC2` (stereo partly drawn) [Example 120, 3-((7-((R)-3-Cyclohexyl-2-methylpropanoyl)-10-hydroxy-7-azaspiro[4.5]decan-10-yl)methyl)-2-methylquinazolin-4(3H)-one] fall in the same range of IC50: 0.5 to 5 µM for the first, 0.5 to 5 µM for the second.

Compared with `O=C1COCCN1CC1(O)CCN(C(=O)N2CCOC[C@H]2c2ccccc2)CC12CCCC2` (stereo partly drawn) [Example 117, 4-((10-Hydroxy-7-((R)-3-phenylmorpholine-4-carbonyl)-7-azaspiro[4.5]decan-10-yl)methyl)morpholin-3-one], `O=C1COCCN1CC1(O)CCN(C(=O)N2CCNC[C@H]2c2ccccc2)CC12CCCC2` (stereo partly drawn) [Example 118, 4-((10-Hydroxy-7-((R)-2-phenylpiperazine-1-carbonyl)-7-azaspiro[4.5]decan-10-yl)methyl)morpholin-3-one] is lower in IC50: 5 to 50 µM for the first, 0.5 to 5 µM for the second.

`O=C1Cn2ccnc2CN1CC1(O)CCN(C(=O)N2CCNC[C@H]2c2ccccc2)CC12CCCC2` (stereo partly drawn) [Example 119, 7-((10-Hydroxy-7-((R)-2-phenylpiperazine-1-carbonyl)-7-azaspiro[4.5]decan-10-yl)methyl)-7,8-dihydroimidazo[1,2-a]pyrazin-6(5H)-one] was tested, and the IC50 was 0.5 to 5 µM.
